Test results reported in patent publication US10604513B2, “Pyridone derivative comprising heteroatomic ring butane substituent, for treating fibrosis and inflammatory diseases” (SHIJIAZHUANG SAGACITY NEW DRUG DEVELOPMENT CO., LTD., priority 2016, dated 2020).

What was measured:
[1] = test system: endotoxin (LPS)-induced TNF-α in rat blood; assay: Effect of compounds on endotoxin (LPS)-induced TNF-α in rat blood in vitro; format: cell-based, Sprague Dawley rats; details: for inhibition of TNF-α level induced by LPS (in words): compared with Pirfenidone; for inhibition at 100 µM: tested concentration of compound 0.1 mM; for inhibition at 100 µM / inhibition at 500 µM: LPS 100 μg/mL, rat blood, 5 h; for inhibition at 500 µM: tested concentration of compound 0.5 Mm (footnote *)
Procedure: Main task: evaluation on effect of compounds on endotoxin (LPS)-induced TNF-α in rat blood in vitro
Experimental purpose: testing effect of compounds on endotoxin (LPS)-induced TNF-α in rat blood in vitro, and evaluate effect of compounds on endotoxin (LPS)-induced TNF-α in rat blood in vitro
Sprague Dawley rats (male, 210-260 g, Shanghai Slac Laboratory Animal CO. LTD) Rat TNF-alpha Quantikine ELISA Kit (R&D, #SRTA00)
A solution of the compound was prepared (5 mM or 1 mM), 40 μL was added into a 48-well cell culture plate, respectively (the final concentration was 0.5 or 0.1 mM). The rats were hocussed with isoflurane and blood was collected from the abdominal aorta (Heparin anticoagulant). The blood was added into a 48-well cell culture plate (320 μL per well) containing the compounds to be tested. And then the 48-well cell culture plate was incubated at 37° C. After 30 min, the plate was added with 40 μL LPS (the final concentration was 100 μg/mL), and then were incubated at 37° C. after mixed. After 5 h, the 48-well plate was taken out and the blood was transferred into 1.5 mL centrifuge tubes and centrifuged in the centrifugal machine (4,500 rpm, 4° C., 5 min). The upper plasma was separated and kept portions (20 μL per well) into 96-well sample plate, and then sharp-frozen and preserved at refrigerator (−80° C.). The second day, the TNF-α level on the blood samples was tested by using R&D ELISA kits according to the kit specification. The data was analyzed by EXCEL and Prism.

[2] = test system: SD rat pulmonary fibrosis induced by Bleomycin; assay: Efficacy trial in vivo: SD rat pulmonary fibrosis induced by Bleomycin; details: for improving tissue damage in the area and margin of pulmonary fibrosis lesions: doses per Table 5, FIGS. 1-4; for efficacy compared with the reference compound Pirfenidone: oral, 14 days
From the text: Experimental purpose: test preventive therapeutic effects of compounds on SD rat pulmonary fibrosis induced by Bleomycin
Model: SD rat pulmonary fibrosis on the left lung; pulmonary fibrosis modelled by injecting Bleomycin into rat trachea
Molding agent: Bleomycin (BLM)
1 ? experimental grouping: efficacy trial for twice, besides common modeling group and Pirfenidone group as control reference, tested compounds were divided into […], i.e. model group (Group -1, n=7, Vehicle), control reference drug (group-2, n=7, Pirfenidone); tested compound WX001 group (Group-3, n=7), tested compound WX002 high dosage group (Group-4, n=7), tested compound WX002 low dosage group (Group-5, n=7) (Table 5)
2 ? Drug administration: Orally administering on the day the model was established, twice a day and administration for 14 day continuously 3 ? Physiological observation of experimental animal: detecting changes in animal weight (test weight before administration every day); detecting animal death rate during test period 4 ? euthanasia of animal after 14 days, formalin was injected into left lung to fix, and test volume and weight of left lung after injection and then test Lung Pathology (Table 6)
Test Results of Experiment: Test of tissue pathology of left lung: pathological evaluation of H&E dye: 1) pathological changes of left lung terminal bronchiole, 2) pathological changes of left lung pulmonary arteriole; pathological evaluation of Masson Thrichrome dye: 3) area of left lung pulmonary fibrosis, 4) score of left lung pulmonary fibrosis.

SMILES	inhibition of TNF-α level induced by LPS (in words) ([1]; 0.1 mM as final concentration)	inhibition at 100 µM [1] [%]	inhibition at 500 µM [1] [%]	also measured
O=c1ccc(C2(F)COC2)cn1-c1ccsc1 [WX011]	significant inhibition	78.8	–	–
CC1(c2ccc(=O)n(-c3ccccc3)c2)COC1 [WX001]	–	–	86.3	improving tissue damage in the area and margin of pulmonary fibrosis lesions ([2]; oral twice a day for 14 days): good effect; inhibition of TNF-α level induced by LPS (in words) ([1]; 0.5 mM): significant inhibition
O=c1ccc(C2(O)COC2)cn1-c1ccsc1 [WX009]	–	–	51.5	–
Cc1ccc(=O)n(-c2ccccc2)c1 [Pirfenidone, reference compound]	–	–	51.4	–
CC1(c2ccc(=O)n(-c3cscn3)c2)COC1 [WX005]	–	61.6	–	–
CC1(c2ccc(=O)n(-c3csc(Cl)c3)c2)COC1 [WX003]	significant inhibition	84.7	–	–
CC1(c2ccc(=O)n(-c3ccsc3)c2)COC1 [WX002]	significant inhibition	74.6	–	efficacy compared with the reference compound Pirfenidone ([2]; low dose of 50 mpk group): better efficacy than Pirfenidone; preventing the formation of pulmonary fibrosis ([2]; oral twice a day for 14 days, FIG. 5): good effect; improving tissue damage in the area and margin of pulmonary fibrosis lesions ([2]; oral twice a day for 14 days): good effect; efficacy compared with the reference compound Pirfenidone ([2]; same dose of 100 mpk group): better efficacy than Pirfenidone
Cc1cc(-n2cc(C3(C)COC3)ccc2=O)cs1 [WX004]	significant inhibition	89.5	–	–
